Test results published in ChEMBL document CHEMBL4138123, “Design, synthesis and biological evaluation of novel pyrazolochalcones as potential modulators of PI3K/Akt/mTOR pathway and inducers of apoptosis in breast cancer cells” (Eur J Med Chem, 2017).

What was measured:
Format in all cases: functional
U-251 = assay: Cytotoxicity against human U251 cells assessed as cell growth at 0.01 uM after 48 hrs by sulforhodamine B assay relative to control; conditions: U-251, 48 h, read-out: Activity
SNB-19 [1] = assay: Cytotoxicity against human SNB19 cells assessed as growth inhibition after 48 hrs by sulforhodamine B assay; conditions: SNB-19, 48 h; for CC50: read-out: LC50 (the source's name)
IGROV-1 [2] = assay: Cytotoxicity against human IGROV1 cells assessed as cell growth at 0.1 uM after 48 hrs by sulforhodamine B assay relative to control; conditions: IGROV-1, 48 h, read-out: Activity
NCI-H226 = assay: Cytotoxicity against human NCI-H226 cells assessed as growth inhibition after 48 hrs by sulforhodamine B assay; conditions: NCI-H226, 48 h
NCI/ADR-RES = assay: Cytotoxicity against human NCI/ADR-RES cells assessed as cell growth at 0.01 uM after 48 hrs by sulforhodamine B assay relative to control; conditions: read-out: Activity
SNB-19 [3] = assay: Cytotoxicity against human SNB19 cells assessed as cell growth at 0.1 uM after 48 hrs by sulforhodamine B assay relative to control; conditions: SNB-19, 48 h, read-out: Activity
MOLT-4 [4] = assay: Cytotoxicity against human MOLT4 cells assessed as growth inhibition after 48 hrs by sulforhodamine B assay; conditions: MOLT-4, 48 h; for CC50: read-out: LC50 (the source's name)
TK-10 [5] = assay: Cytotoxicity against human TK10 cells assessed as cell growth at 0.1 uM after 48 hrs by sulforhodamine B assay relative to control; conditions: TK-10, 48 h, read-out: Activity
HOP-62 = assay: Cytotoxicity against human HOP62 cells assessed as cell growth at 0.01 uM after 48 hrs by sulforhodamine B assay relative to control; conditions: HOP-62, 48 h, read-out: Activity
MDA-MB-468 = assay: Cytotoxicity against human MDA-MB-468 cells assessed as cell growth at 10 uM after 48 hrs by sulforhodamine B assay relative to control; conditions: MDA-MB-468, 48 h, read-out: Activity
NCI-H322M [6] = assay: Cytotoxicity against human NCI-H322M cells assessed as cell growth at 0.01 uM after 48 hrs by sulforhodamine B assay relative to control; conditions: read-out: Activity
IGROV-1 [7] = assay: Cytotoxicity against human IGROV1 cells assessed as cell growth at 0.01 uM after 48 hrs by sulforhodamine B assay relative to control; conditions: IGROV-1, 48 h, read-out: Activity
T47D = assay: Cytotoxicity against human T47D cells assessed as cell growth at 1 uM after 48 hrs by sulforhodamine B assay relative to control; conditions: read-out: Activity
TK-10 [8] = assay: Cytotoxicity against human TK10 cells assessed as growth inhibition after 48 hrs by sulforhodamine B assay; conditions: TK-10, 48 h
MDA-MB-435 = assay: Cytotoxicity against human MDA-MB-435 cells assessed as cell growth at 100 uM after 48 hrs by sulforhodamine B assay relative to control; conditions: MDA-MB-435, 48 h, read-out: Activity
RPMI-8226 [9] = assay: Cytotoxicity against human RPMI8226 cells assessed as cell growth at 10 uM after 48 hrs by sulforhodamine B assay relative to control; conditions: RPMI-8226, 48 h, read-out: Activity
HL-60(TB) [10] = assay: Cytotoxicity against human HL-60(TB) cells assessed as cell growth at 1 uM after 48 hrs by sulforhodamine B assay relative to control; conditions: HL-60, 48 h, read-out: Activity
HCT-15 = assay: Cytotoxicity against human HCT15 cells assessed as cell growth at 100 uM after 48 hrs by sulforhodamine B assay relative to control; conditions: HCT-15, 48 h, read-out: Activity
NCI-H322M [11] = assay: Cytotoxicity against human NCI-H322M cells assessed as cell growth at 1 uM after 48 hrs by sulforhodamine B assay relative to control; conditions: read-out: Activity
PC-3 = assay: Cytotoxicity against human PC3 cells assessed as cell growth at 10 uM after 48 hrs by sulforhodamine B assay relative to control; conditions: PC-3, 48 h, read-out: Activity
UACC-257 [12] = assay: Cytotoxicity against human UACC257 cells assessed as growth inhibition after 48 hrs by sulforhodamine B assay; conditions: UACC-257, 48 h
M14 = assay: Cytotoxicity against human M14 cells assessed as cell growth at 100 uM after 48 hrs by sulforhodamine B assay relative to control; conditions: M14, 48 h, read-out: Activity
MOLT-4 [13] = assay: Cytotoxicity against human MOLT4 cells assessed as cell growth at 100 uM after 48 hrs by sulforhodamine B assay relative to control; conditions: MOLT-4, 48 h, read-out: Activity
CCRF-CEM = assay: Cytotoxicity against human CCRF-CEM cells assessed as cell growth at 0.01 uM after 48 hrs by sulforhodamine B assay relative to control; conditions: read-out: Activity
HCC 2998 = assay: Cytotoxicity against human HCC2998 cells assessed as cell growth at 1 uM after 48 hrs by sulforhodamine B assay relative to control; conditions: HCC 2998, 48 h, read-out: Activity
MCF7 = assay: Cytotoxicity against human MCF7 cells assessed as growth inhibition after 48 hrs by sulforhodamine B assay; conditions: MCF7, 48 h
UACC-257 [14] = assay: Cytotoxicity against human UACC257 cells assessed as cell growth at 10 uM after 48 hrs by sulforhodamine B assay relative to control; conditions: UACC-257, 48 h, read-out: Activity
SF-268 = assay: Cytotoxicity against human SF268 cells assessed as cell growth at 100 uM after 48 hrs by sulforhodamine B assay relative to control; conditions: SF-268, 48 h, read-out: Activity
SN12C = assay: Cytotoxicity against human SN12C cells assessed as cell growth at 100 uM after 48 hrs by sulforhodamine B assay relative to control; conditions: read-out: Activity
SNB-19 [15] = assay: Cytotoxicity against human SNB19 cells assessed as cell growth at 1 uM after 48 hrs by sulforhodamine B assay relative to control; conditions: SNB-19, 48 h, read-out: Activity
HL-60(TB) [16] = assay: Cytotoxicity against human HL-60(TB) cells assessed as cell growth at 100 uM after 48 hrs by sulforhodamine B assay relative to control; conditions: HL-60, 48 h, read-out: Activity
786-0 = assay: Cytotoxicity against human 786-0 cells assessed as cell growth at 0.01 uM after 48 hrs by sulforhodamine B assay relative to control; conditions: 786-0, 48 h, read-out: Activity
RPMI-8226 [17] = assay: Cytotoxicity against human RPMI8226 cells assessed as cell growth at 100 uM after 48 hrs by sulforhodamine B assay relative to control; conditions: RPMI-8226, 48 h, read-out: Activity
NCI-H23 = assay: Cytotoxicity against human NCI-H23 cells assessed as cell growth at 10 uM after 48 hrs by sulforhodamine B assay relative to control; conditions: NCI-H23, 48 h, read-out: Activity
ACHN = assay: Cytotoxicity against human ACHN cells assessed as cell growth at 10 uM after 48 hrs by sulforhodamine B assay relative to control; conditions: read-out: Activity
NCI-H522 = assay: Cytotoxicity against human NCI-H522 cells assessed as cell growth at 0.1 uM after 48 hrs by sulforhodamine B assay relative to control; conditions: NCI-H522, 48 h, read-out: Activity

COc1ccc(-c2cc(/C=C/C(=O)c3ccc(OC)c(OC)c3)[nH]n2)cc1
growth at 0.01 µM (U-251): 95% | GI50 (SNB-19 [1]): 1.88 µM | TGI (SNB-19 [1]): 5.28 µM | CC50 (SNB-19 [1]): 19.6 µM | growth at 0.1 µM (IGROV-1 [2]): 91% | GI50 (NCI-H226): 1.54 µM | TGI (NCI-H226): 3.51 µM | growth at 0.01 µM (NCI/ADR-RES): 102% | growth at 0.1 µM (SNB-19 [3]): 90% | GI50 (MOLT-4 [4]): 2.67 µM | TGI (MOLT-4 [4]): 8 µM | CC50 (MOLT-4 [4]): > 100 µM | growth at 0.1 µM (TK-10 [5]): 102% | growth at 0.01 µM (HOP-62): 97% | growth at 10 µM (MDA-MB-468): -69% | growth at 0.01 µM (NCI-H322M [6]): 94% | growth at 0.01 µM (IGROV-1 [7]): 97% | growth at 1 µM (T47D): 70% | GI50 (TK-10 [8]): 2.11 µM | LC50 (TK-10 [8]): 8.78 µM | TGI (TK-10 [8]): 4.31 µM | growth at 100 µM (MDA-MB-435): -91% | growth at 10 µM (RPMI-8226 [9]): -56% | growth at 1 µM (HL-60(TB) [10]): 86% | growth at 100 µM (HCT-15): -92% | growth at 1 µM (NCI-H322M [11]): 72% | growth at 10 µM (PC-3): -61% | GI50 (UACC-257 [12]): 1.73 µM | LC50 (UACC-257 [12]): 7.72 µM | TGI (UACC-257 [12]): 3.65 µM | growth at 100 µM (M14): -99% | growth at 100 µM (MOLT-4 [13]): -33% | growth at 0.01 µM (CCRF-CEM): 102% | growth at 1 µM (HCC 2998): 102% | GI50 (MCF7): 0.41 µM | LC50 (MCF7): 5.11 µM | TGI (MCF7): 1.76 µM | growth at 10 µM (UACC-257 [14]): -67% | growth at 100 µM (SF-268): -63% | growth at 100 µM (SN12C): -86% | growth at 1 µM (SNB-19 [15]): 80% | growth at 100 µM (HL-60(TB) [16]): -43% | growth at 0.01 µM (786-0): 100% | growth at 100 µM (RPMI-8226 [17]): -62% | growth at 10 µM (NCI-H23): -24% | growth at 10 µM (ACHN): -58% | growth at 0.1 µM (NCI-H522): 111%

COc1ccc(-c2cc(/C=C/C(=O)c3cc(OC)c(OC)c(OC)c3)[nH]n2)cc1OC
growth at 0.01 µM (U-251): 99% | GI50 (SNB-19 [1]): 1.8 µM | TGI (SNB-19 [1]): 5.32 µM | CC50 (SNB-19 [1]): 27.1 µM | growth at 0.1 µM (IGROV-1 [2]): 97% | GI50 (NCI-H226): 1.93 µM | LC50 (concentration killing 50% of cells) (NCI-H226): > 100 µM | TGI (NCI-H226): 7.91 µM | growth at 0.01 µM (NCI/ADR-RES): 97% | growth at 0.1 µM (SNB-19 [3]): 92% | GI50 (MOLT-4 [4]): 1.81 µM | TGI (MOLT-4 [4]): 8.86 µM | CC50 (MOLT-4 [4]): > 100 µM | growth at 0.1 µM (TK-10 [5]): 89% | growth at 0.01 µM (HOP-62): 92% | growth at 10 µM (MDA-MB-468): -62% | growth at 0.01 µM (NCI-H322M [6]): 93% | growth at 0.01 µM (IGROV-1 [7]): 103% | growth at 1 µM (T47D): 51% | GI50 (TK-10 [8]): 3.27 µM | LC50 (TK-10 [8]): 36.9 µM | TGI (TK-10 [8]): 11.8 µM | growth at 100 µM (MDA-MB-435): -78% | growth at 10 µM (RPMI-8226 [9]): -38% | growth at 1 µM (HL-60(TB) [10]): 64% | growth at 100 µM (HCT-15): -49% | growth at 1 µM (NCI-H322M [11]): 82% | growth at 10 µM (PC-3): 1% | GI50 (UACC-257 [12]): 1.79 µM | LC50 (UACC-257 [12]): 8.05 µM | TGI (UACC-257 [12]): 3.8 µM | growth at 100 µM (M14): -74% | growth at 100 µM (MOLT-4 [13]): -15% | growth at 0.01 µM (CCRF-CEM): 97% | growth at 1 µM (HCC 2998): 105% | GI50 (MCF7): 1.06 µM | TGI (MCF7): 2.5 µM | growth at 10 µM (UACC-257 [14]): -64% | growth at 100 µM (SF-268): -72% | growth at 100 µM (SN12C): -67% | growth at 1 µM (SNB-19 [15]): 77% | growth at 100 µM (HL-60(TB) [16]): -8% | growth at 0.01 µM (786-0): 100% | growth at 100 µM (RPMI-8226 [17]): -31% | growth at 10 µM (NCI-H23): -39% | growth at 10 µM (ACHN): -95% | growth at 0.1 µM (NCI-H522): 86%
